Measured values taken from PubChem BioAssay (NCI).
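How tested: cells in 96-well plates exposed to compound for 48 hours at five concentrations. At the GI50, growth is halved. TGI: concentration producing complete growth inhibition.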

Assays:
Test in all cases: growth of human tumour cells (NCI), 48 h
[1] = system: SW-620 colon
[2] = system: OVCAR-3 ovarian
[3] = system: NCI-H23 lung
[4] = system: LOX IMVI melanoma
[5] = system: SNB-75 CNS
[6] = system: NCI-H226 lung
[7] = system: HL-60(TB) leukemia
[8] = system: HS 578T breast
[9] = system: DU-145 prostate
[10] = system: T-47D breast

Row | SMILES | TGI [1] [µM] | TGI [2] [µM] | TGI [3] [µM] | TGI [4] [µM] | TGI [5] [µM] | TGI [6] [µM] | TGI [7] [µM] | GI50 [7] [µM] | GI50 [1] [µM] | GI50 [2] [µM] | GI50 [3] [µM] | GI50 [4] [µM] | GI50 [6] [µM] | GI50 [8] [µM] | TGI [8] [µM] | GI50 [9] [µM] | TGI [9] [µM] | GI50 [5] [µM] | TGI [10] [µM] | GI50 [10] [µM]
1 | CN1C(=O)CC2(C)c3cc(O)cc(Br)c3N(C)C12 (stereo not drawn) | > 100 | > 100 | > 100 | > 100 | > 100 | > 100 |  |  |  |  |  |  |  |  |  |  |  |  |  | 
2 | C/C(CCn1[nH]c(=O)ccc1=O)=N\NC(=O)C(N)=O | > 100 | > 100 | > 100 | > 100 | > 100 | > 100 | > 100 |  |  |  |  |  |  |  |  |  |  |  |  | 
3 | O=C1C(=c2ccc(=C3C(=O)c4ccc([N+](=O)[O-])cc4[N+]3=O)cc2)N([O-])c2cc([N+](=O)[O-])ccc21 | > 100 | > 100 | > 100 | > 100 | 69.8 | > 100 | > 100 | > 100 | > 100 | > 100 | > 100 | > 100 | > 100 |  |  |  |  |  |  | 
4 | Cc1ccc([P+](Cc2ccccc2)(c2ccccc2)c2ccccc2)cc1 | 49.6 | 65.8 |  | 14.3 | 9.71 | > 100 | 3.69 | 1.14 | 2.66 | 1.52 |  | 2.48 | 2.57 | 3.19 | 83.4 | 3.62 | > 100 | 2.21 |  | 
5 | O=C(O)CN(c1ccccc1)S(=O)(=O)c1cccc([N+](=O)[O-])c1 | > 100 | > 100 | > 100 | > 100 | > 100 | > 100 | > 100 |  |  |  |  |  |  |  |  |  |  |  |  | 
6 | Cc1ccc([Se](=C(C(=O)c2ccccc2)C(=O)c2ccccc2)c2ccc(C)cc2)cc1 | > 100 | 74.1 | 59.2 |  | > 100 | 56.7 | 54.2 |  |  |  |  |  |  |  | 72.9 |  | > 100 |  | > 100 | 
7 | COc1cccc(C=O)c1C(=O)c1cc(O)ccc1O | 33.2 | 45.5 | > 100 | > 74 | > 100 | > 100 | > 100 |  |  |  |  |  |  |  |  |  |  |  |  | 
8 | COC(=O)c1cc(NC(=O)c2cc(NC(=O)c3cc([N+](=O)[O-])n(C)c3)cn2C)cn1C | > 100 | > 100 | > 100 | 85.9 |  | > 100 |  |  | > 100 | > 100 | 24.5 | 10.7 | 39.9 | > 100 | > 100 |  |  |  | > 100 | > 100
9 | COc1cc2c3c(n(CCCN(CCCN(CCCn4c5c(c6ccccc6c4=O)C(=O)c4ccccc4-5)C(=O)OC(C)(C)C)C(=O)OC(C)(C)C)c(=O)c2cc1OC)-c1cc2c(cc1C3=O)OCO2 | > 100 |  | > 100 | > 100 | > 100 |  | > 100 | > 100 | > 100 |  | > 100 | 26.5 |  |  |  |  |  | > 100 | > 100 | > 100
10 | [O-]/N=[N+](/[O-])C1CCCCC1=[N+]1CCOCC1 (stereo not drawn) | > 100 | > 100 | > 100 |  |  | > 100 | > 100 |  |  |  |  |  |  |  |  |  |  |  |  | 
11 | O=C(C=Nc1ccccc1C(=O)[O-])c1cccs1.O=C(C=Nc1ccccc1C(=O)[O-])c1cccs1.[Ni+2] | > 100 | > 100 | > 100 | > 100 |  |  | > 100 |  |  |  |  |  |  |  |  |  |  |  |  | 
12 | COc1cc2c(cc1OC)C(C#N)N(C(=O)c1ccccc1)C=C2OC(=O)c1ccccc1 (stereo not drawn) | > 100 | 47.4 | > 100 | > 100 | 40 | 51.4 | > 100 |  |  |  |  |  |  |  |  |  |  |  |  | 
13 | Cc1cc(=O)[nH]c(CNC(=O)c2ccc3ccccc3c2)n1 | > 100 | > 100 | > 100 | > 100 | > 100 | > 100 | > 100 |  |  |  |  |  |  |  |  |  |  |  |  | 
14 | O=C(CN1CCN(Cc2ccccc2Cl)CC1)NC1CC(=O)c2c(Br)sc(Br)c21 (stereo not drawn) | 36.6 | 43.4 |  | 35.8 |  | 91.8 | 57.4 | 23.3 | 19.8 | 20.8 |  | 18.6 | 23.9 | 29.4 | 71.5 | 18.8 | 33.6 |  | 43.9 | 21.6
15 | CCc1ccccc1NC(=O)C(=O)C(C#N)c1ccccc1Cl (stereo not drawn) | > 100 | > 100 | > 100 | 10.9 | > 100 | > 100 | > 100 |  |  |  |  |  |  |  |  |  |  |  |  | 
16 | O=Cc1cccc2ccc3ccccc3c12 | 74.3 | 40.4 | 66.5 | 45.9 | 43.6 | 74.8 |  |  |  |  |  |  |  |  | 54.7 |  | > 100 |  | 92.4 | 
17 | O=C1/C(=C/c2ccc([N+](=O)[O-])s2)Oc2cc(Cl)ccc21 | 0.524 | 0.898 |  |  | 11.6 | > 21.8 |  |  | 0.217 | 0.325 |  |  | 3.83 | 0.519 | 5.43 | 3.81 | > 100 | 2.04 | > 100 | 1.5
18 | COC(=O)C1CSC(c2csc(CCN)n2)=N1 (stereo not drawn) | > 100 | > 100 | > 100 | > 100 | > 100 | > 100 | > 100 |  |  |  |  |  |  |  |  |  |  |  |  | 
19 | O=C(COc1ccccc1Cl)N1N=C(c2ccccc2)CC1(O)c1ccccc1 (stereo not drawn) | 79.1 | 33.6 | 25.1 | 30.4 | > 100 | 35.9 | 30.6 |  |  |  |  |  |  |  |  |  |  |  |  | 
20 | CN(C)C1CCN(Cc2ccc(NC(=O)c3cncc(C#Cc4cnc(N)c5ncccc45)c3)cc2C(F)(F)F)CC1 | 4.03 | 17.6 | 19.9 | 20 | 11.5 |  | 24.4 | 9.8 | 1.32 | 9.3 | 7.9 | 8.01 |  | 3.84 | 14.8 | 0.904 | 1.72 | 5.39 | 43.8 | 11.6
